Data set [1] in a line: Chemical and optical properties of NIR dyes (Table 1). The data set is classed as physicochemical.
Data set [2] deals with T1, folate receptor (FR-α) on KB cells (Homo sapiens, UniProt P15328).
T1 construct: KB cells that overexpress FR-α were seeded in 24-well (100,000 cells/well) Falcon plates; host or cells: KB cells (human; described as a HeLa derivative)
The data set is described as follows: Competition binding with [3H]-folic acid on KB cells. Conditions: for Kd: 10 nM [3H]-folic acid, 1 h at 37 °C, read-out: dissociation constants (KD); for Kd / affinity and specificity for folate receptor (words): KB cells; for Relative binding affinities: relative affinity of folic acid=1, <1 weaker. How it is done:
KB cells that overexpress FR-α were seeded in 24-well (100,000 cells/well) Falcon plates and allowed to form monolayers over a period of 24 h. […] After incubating for 1 hour at 37° C., cells were rinsed with PBS (2×0.5 mL) and 1M trichloroacetic acid (1×0.5 mL) to remove any unbound radioactive materials. After adding 1% sodium dodecylsulfate in PBS (0.5 mL), cells were transferred into individual scintillation vials containing Ecolume scintillation cocktail (3.0 mL) and counted in a liquid scintillation analyzer. The relative binding affinities were calculated using a plot of cell bound radioactivity versus the concentration of the test article using Graph Pad Prism 4.
(§1) KB cells that overexpress FR-α were seeded in 24-well (100,000 cells/well) Falcon plates (BD Biosciences, CA) and allowed to form monolayers over a period of 12 h. […] After incubating for 1 h at 37° C., cells were rinsed with PBS (3×0.5 mL, Gibco, NY) to remove any unbound radioactive materials. After adding 0.25 M sodium hydroxide (0.5 mL) and incubating for 12 h at 4° C., cells were transferred into individual scintillation vials containing Ecolite scintillation cocktail (3.0 mL, MP Biomedicals, OH) and counted in a liquid scintillation analyzer (Packard). The relative binding affinities were calculated using a plot of % cell bound radioactivity versus the log concentration of the test article using GraphPad Prism 4.
as §1, with “12 hours.” for “12 h.”, “1 hour” for “1 h”, “12 hours” for “12 h”

Data set [3] concerns folate receptor positive KB tumor xenografts. The data set is described as follows: Whole body imaging and tissue biodistribution, KB tumor xenografts. The format is in vivo, mice. Conditions: for tumor fluorescence intensity, direct comparison / whole body imaging: accumulation: 10 nmol i.v.; for tumor fluorescence intensity, direct comparison / whole body imaging: accumulation / tumor fluorescence: 2 h; for tumor fluorescence: 10 nmol. How it is done:
(§2) Seven-week-old female nu/nu mice were inoculated subcutaneously with KB cells (1.0×10^6/mouse in folate free RPM11640 medium) on the shoulder. […] […] Whole body imaging (intact tumor) experiments were then performed using a Caliper IVIS Lumina II Imaging Station with Living Image 4.0 software (PerkinElmer Inc, MA). Settings for imaging:—lamp level: medium; excitation: 745 nm; emission: 830 nm; epi illumination; binning: 4 (M), FOV=12.5; f-stop=2; acquisition time=1 s.
Following whole body imaging, animals were dissected and selected tissues (heart, lung, liver, spleen, kidneys, stomach, small intestine, large intestine, muscle, skin, tumor) were analyzed for fluorescence activity using IVIS imager as before. Settings for imaging: lamp level: medium; excitation: 745 nm; emission: 830 nm; epi illumination; binning: 4 (M), FOV=12.5; f-stop=2; acquisition time=1 s.
as §2, with “shoulder. Growth of the tumors was measured in perpendicular directions every 2 days using a caliper (body weights were monitored on the same schedule), and the volumes of the tumors were calculated as 0.5×L×W^2 (L=longest axis and W=axis perpendicular to L in millimeters).” for “shoulder.”, “ICG (830 nm);” for “830 nm;”
Following whole body imaging, animals were dissected and selected tissues (heart, lung, liver, spleen, kidneys, stomach, small intestine, large intestine, muscle, skin, and tumor) were analyzed for fluorescence activity using IVIS imager as before. Settings for imaging:—lamp level: medium; excitation: 745 nm; emission:ICG (830 nm); epi illumination; binning: 4 (M), FOV=12.5; f-stop=2; acquisition time=1 s.
Five-week-old female nu/nu mice were inoculated subcutaneously with KB cells (1.0×10^6/mouse in RPMI medium) on their shoulders. Growth of the tumors was measured in two perpendicular directions every 2 days using a caliper (body weights were monitored on the same schedule), and the volumes of the tumors were calculated as 0.5×L×W^2 (L) longest axis and W) axis perpendicular to L in millimeters). Once tumors reached between 400 and 500 mm3 in volume, animals were treated with folate receptor-targeted NIR dye conjugate (10 nmol) in phosphate buffered saline (100 μL). […]
Animal imaging experiments were performed using a Caliper Ivis Lumina II Imaging Station with Living Image 4.0 software. Settings for imaging Alexa Fluor 647 and DyLight 680 conjugates: lamp level: high; excitation: 605; emission: Cy5.5; epi illumination; binning: (M) 4; FOV=7.5; f-stop=4; acquisition time=1 s. Settings for imaging DyLight 750 and IR800CW conjugates: lamp level: high; excitation: 745; emission: ICG; epi illumination; binning: (M) 4, FOV=12.5; f-stop=4; acquisition time=1 s.
Seven-week-old female nu/nu mice were inoculated subcutaneously with KB cells (1.0×10^6/mouse in folate free RPM11640 medium) on the shoulder. Growth of the tumors was measured in perpendicular directions every 2 days using a caliper (body weights were monitored on the same schedule), and the volumes of the tumors were calculated as 0.5×L×W^2 (L=longest axis and W=axis perpendicular to L in millimeters). Once tumors reached between 400 and 500 mm3 in volume, animals (5 mice/group) were intravenously injected with 10 nmol of OTL-0038 or OTL-0039 in phosphate buffered saline (100 μL). After 2.5 hours, animals were euthanized by CO2 asphyxiation. Whole body imaging (intact tumor) experiments were then performed using a Caliper IVIS Lumina II Imaging Station with Living Image 4.0 software (PerkinElmer Inc, MA). […]

Entries after “also recorded” stand apart in the source; their conditions may differ.

T1 sequence (P15328 25-234): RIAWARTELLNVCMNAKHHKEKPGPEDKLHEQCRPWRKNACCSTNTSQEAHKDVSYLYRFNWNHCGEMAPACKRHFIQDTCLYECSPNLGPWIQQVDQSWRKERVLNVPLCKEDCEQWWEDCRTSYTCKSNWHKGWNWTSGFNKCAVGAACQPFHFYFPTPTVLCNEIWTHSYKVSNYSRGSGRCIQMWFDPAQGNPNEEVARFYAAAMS

Consider `CC1(C)C(=CC=C2CCCC(C=CC3=[N+](CCC[N+](C)(C)C)c4ccc(S(=O)(=O)O)cc4C3(C)C)=C2Oc2ccc(CCC(=O)O)cc2)N(CCC[N+](C)(C)C)c2ccc(S(=O)(=O)O)cc21` [ZW80o], for which, in data set [1], the “E” value came out at 249000 M⁻¹ cm⁻¹, the “Q (%)” value came to 15.1%, the “Stokes Shift (nm)” value is 16 nm and the “λem (nm)” value stood at 772 nm. The “λex (nm)” value in data set [1] is given as 788 nm.
As for Pte-Tyr-2H(Deuterated)-S0456 [OTL-0042], in data set [2], the equilibrium dissociation constant (Kd) turned out to be 61.7 nM and the Relative binding affinities was 0.130.
With FA-EDA-ZW800 [OTL-0003], in data set [2], the Kd was determined as 23.3 nM and the Relative binding affinities is 0.356. Moreover, in data set [3], the “tumor fluorescence intensity, direct comparison” value (shortened to “tumor fluorescence intensity”) was “highest tumor-accumulated fluorescence” and the “whole body imaging: accumulation” value is “accumulated predominantly in the folate receptor positive tumors”.
Turning to Pte-p-homo-Tyr-S0456 [OTL-0047], in data set [2], the Kd was 12.8 nM and the Relative binding affinities was 0.625. In addition, the “whole body imaging: accumulation” value in data set [3] is on record as “accumulated predominantly in the folate receptor-positive tumors; also recorded: mainly accumulated in the tumors”.
Consider Pte-N(Me)-Tyr-S0456 [OTL-0044], for which, in data set [2], the “affinity and specificity for folate receptor (words)” value was “All the compounds have an affinity for folate receptor except OTL-0044 and OTL-0045”. For the same compound, the “whole body imaging: accumulation” value in data set [3] was “accumulated predominantly in the folate receptor-positive tumors; also recorded: mainly accumulated in the tumors”.
For FA-EDA-IR800 [OTL-0002], in data set [2], the Kd turned out to be 19.3 nM and the Relative binding affinities stood at 0.430. Besides, in data set [3], the “tumor fluorescence intensity” value is listed as “brighter (higher fluorescence intensity); also recorded: highest tumor-accumulated fluorescence” and the “whole body imaging: accumulation” value is “accumulated predominantly in the folate receptor positive tumors”.
In the case of Pteroyl DAP-S0456 [OTL-0056], in data set [2], the Kd came out at 95.2 nM and the Relative binding affinities stood at 0.078.
As to Pte-Tyr-(OBn)-S0456 [OTL-0043], in data set [2], the Kd was 14.8 nM and the Relative binding affinities is on record as 0.177.
In the case of Pte-Tyramine-S0456 [OTL-0049], in data set [2], the Kd amounted to 30.2 nM and the Relative binding affinities stood at 0.265.
Turning to Pte-NHNH-Tyr-(OAc)-S0456 [OTL-0045], the “affinity and specificity for folate receptor (words)” value in data set [2] was “All the compounds have an affinity for folate receptor except OTL-0044 and OTL-0045”.
For FA-EDA-Kodak2 [OTL-0004], in data set [2], the Kd stood at 30.6 nM and the Relative binding affinities came to 0.271. In data set [3], the “tumor fluorescence intensity” value is “very low specificity for the tumor and low fluorescence”; the “whole body imaging: accumulation” value is recorded as “did not accumulated in the tumors”.
As for Pte-homo-Tyr-S0456 [OTL-0046], in data set [2], the Kd came out at 13.8 nM and the Relative binding affinities is given as 0.580. In data set [3], the “whole body imaging: accumulation” value is on record as “accumulated predominantly in the folate receptor-positive tumors; also recorded: mainly accumulated in the tumors”.
Take `CC1(C)C(/C=C/C=C/C=C/C=C2\N(CCCCS(=O)(=O)O)c3ccc4ccccc4c3C2(C)C)=[N+](CCCCS(=O)(=O)[O-])c2ccc3ccccc3c21` [ICG, indocyanine green]: in data set [1], the “E” value stood at 121000 M⁻¹ cm⁻¹, the “Q (%)” value is recorded as 9.3%, the “Stokes Shift (nm)” value is 15 nm and the “λem (nm)” value was 807 nm. Besides, the “λex (nm)” value in data set [1] was found to be 822 nm.
Pteroyl-Lys-S0456 [OTL-0053]: the tumor fluorescence entry in data set [3] (excited at 605-675 nm, emitted at ICG (830 nm)) is recorded as “bright tumor fluorescence”; in data set [3] (excited at 710-745 nm, emitted at ICG), “only a moderate brightness”. The “Stoke's shift” value in data set [3] (in vivo imaging) is “longer Stoke's shift”.
Turning to FA-EDA-LS288 [OTL-0001], in data set [2], the Kd came out at 30.7 nM and the Relative binding affinities amounted to 0.270. For the same compound, the “whole body imaging: accumulation” value in data set [3] was “accumulated predominantly in the folate receptor positive tumors”.
Turning to Pte-Tyr-13C-S0456 [OTL-0040], in data set [2], the Kd was 27.6 nM and the Relative binding affinities is recorded as 0.290.
For the compound Pteroyl-Cys-S0456 [OTL-0054], in data set [3], the “whole body imaging: accumulation” value is on record as “accumulated predominantly in the folate receptor-positive tumors”.
`CC1(C)C(/C=C/C2=C(Oc3ccc(S(=O)(=O)O)cc3)C(=C/C=C3/N(CCCCS(=O)(=O)O)c4ccc(S(=O)(=O)[O-])cc4C3(C)C)/CCC2)=[N+](CCCCCC(=O)O)c2ccc(S(=O)(=O)O)cc21` [IR800CW]: in data set [1], the “E” value was 237000 M⁻¹ cm⁻¹, the “Q (%)” value came to 14.2%, the “Stokes Shift (nm)” value amounted to 14 nm and the “λem (nm)” value is recorded as 786 nm. The “λex (nm)” value in data set [1] is listed as 800 nm.

(Values after patent publication US12133900B2, “Synthesis and composition of amino acid linking groups conjugated to compounds used for the targeted imaging of tumors” (Purdue Research Foundation, priority 2013, dated 2024).)
